Assay results: ChEMBL document CHEMBL1201862, “PubChem BioAssay data set” (2004)
Calls of active or inactive are those of the source.

Assays:
[1] = target: T1, Adenosylmethionine-8-amino-7-oxononanoate aminotransferase (Mycobacterium tuberculosis, UniProt P9WQ81); assay: Mycobacterium tuberculosis BioA enzyme inhibitor Measured in Biochemical System Using Plate Reader - 2163-02_Inhibitor_Dose_CherryPick_Activity.; assay type: functional, Mycobacterium tuberculosis UT205
T1 sequence (P9WQ81 whole entry): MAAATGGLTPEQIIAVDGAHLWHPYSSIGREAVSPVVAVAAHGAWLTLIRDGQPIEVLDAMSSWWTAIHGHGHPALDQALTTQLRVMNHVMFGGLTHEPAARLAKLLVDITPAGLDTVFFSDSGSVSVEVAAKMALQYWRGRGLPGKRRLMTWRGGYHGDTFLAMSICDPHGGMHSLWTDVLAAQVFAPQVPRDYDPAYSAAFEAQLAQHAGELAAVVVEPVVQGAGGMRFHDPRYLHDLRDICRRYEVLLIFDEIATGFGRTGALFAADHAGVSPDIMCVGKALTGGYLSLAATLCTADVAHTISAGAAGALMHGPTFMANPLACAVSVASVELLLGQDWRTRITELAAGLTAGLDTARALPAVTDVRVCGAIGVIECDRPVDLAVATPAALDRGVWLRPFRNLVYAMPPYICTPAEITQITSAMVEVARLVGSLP

[2] = target: T2, Cytochrome P450 1A2 (Homo sapiens, UniProt P05177);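 also: PubChem cytochrome P450 panel assay, CYP1A2 panel member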
T2 sequence (P05177 whole entry): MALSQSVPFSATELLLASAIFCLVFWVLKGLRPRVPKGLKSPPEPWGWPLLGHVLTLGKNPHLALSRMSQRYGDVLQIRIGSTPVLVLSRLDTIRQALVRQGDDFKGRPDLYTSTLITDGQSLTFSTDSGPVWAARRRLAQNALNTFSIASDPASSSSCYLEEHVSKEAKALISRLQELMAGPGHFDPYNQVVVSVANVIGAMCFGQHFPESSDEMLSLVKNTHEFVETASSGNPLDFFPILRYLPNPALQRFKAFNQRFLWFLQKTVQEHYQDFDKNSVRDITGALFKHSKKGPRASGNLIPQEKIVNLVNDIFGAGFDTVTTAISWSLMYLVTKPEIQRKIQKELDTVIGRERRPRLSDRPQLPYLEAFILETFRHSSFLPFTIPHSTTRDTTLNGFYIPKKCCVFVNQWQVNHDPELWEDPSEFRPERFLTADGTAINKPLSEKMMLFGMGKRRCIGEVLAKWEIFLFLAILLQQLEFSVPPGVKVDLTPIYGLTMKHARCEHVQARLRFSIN

[3] = target: T3, Low molecular weight phosphotyrosine protein phosphatase (Homo sapiens, UniProt P24666); assay type: functional; conditions: read-out: IC50_Mean;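 also: Dose-response confirmation assay measuring inhibition of LMPTP enzyme activity by fluorescence intensity read-out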
T3 sequence (P24666 whole entry): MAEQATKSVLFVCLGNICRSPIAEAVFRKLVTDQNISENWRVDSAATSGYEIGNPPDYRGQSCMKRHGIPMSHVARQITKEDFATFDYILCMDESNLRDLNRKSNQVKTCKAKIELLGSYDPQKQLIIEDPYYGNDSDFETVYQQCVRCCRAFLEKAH

[4] = target: Large T antigen (Simian virus 40, UniProt P03070); assay type: functional, Betapolyomavirus macacae;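 also: Confirmatory-stage PubChem screen for compounds that inhibit SV40 T antigen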
Chain of Large T antigen (P03070 whole entry): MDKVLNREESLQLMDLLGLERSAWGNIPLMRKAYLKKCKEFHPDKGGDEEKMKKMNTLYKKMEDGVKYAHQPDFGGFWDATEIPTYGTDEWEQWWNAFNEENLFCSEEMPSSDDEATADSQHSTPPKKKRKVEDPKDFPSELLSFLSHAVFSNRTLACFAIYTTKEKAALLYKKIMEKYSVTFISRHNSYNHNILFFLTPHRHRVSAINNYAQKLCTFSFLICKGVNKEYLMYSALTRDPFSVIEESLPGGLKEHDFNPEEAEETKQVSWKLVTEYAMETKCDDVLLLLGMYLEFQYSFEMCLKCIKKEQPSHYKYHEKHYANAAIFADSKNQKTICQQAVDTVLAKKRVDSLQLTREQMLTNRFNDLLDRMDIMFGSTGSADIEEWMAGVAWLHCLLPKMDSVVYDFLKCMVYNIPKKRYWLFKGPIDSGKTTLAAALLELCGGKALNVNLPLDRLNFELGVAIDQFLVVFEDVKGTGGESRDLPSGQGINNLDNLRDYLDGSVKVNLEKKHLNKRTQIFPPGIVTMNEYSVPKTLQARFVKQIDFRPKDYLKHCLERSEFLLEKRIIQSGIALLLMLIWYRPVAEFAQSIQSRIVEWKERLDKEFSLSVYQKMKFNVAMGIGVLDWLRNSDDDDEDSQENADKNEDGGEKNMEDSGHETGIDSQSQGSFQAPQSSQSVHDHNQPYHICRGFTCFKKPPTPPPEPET

[5] = target: T4, Aminopeptidase N (Plasmodium falciparum FcB1/Columbia, UniProt O96935); assay: P. falciparum M1AAP inhibitors, biochemical, fluorogenic H-Leu-NHMec substrate, 1536-well (AID 1445); design: species or system Plasmodium falciparum 3D7, 3D7
T4 sequence (O96935 whole entry): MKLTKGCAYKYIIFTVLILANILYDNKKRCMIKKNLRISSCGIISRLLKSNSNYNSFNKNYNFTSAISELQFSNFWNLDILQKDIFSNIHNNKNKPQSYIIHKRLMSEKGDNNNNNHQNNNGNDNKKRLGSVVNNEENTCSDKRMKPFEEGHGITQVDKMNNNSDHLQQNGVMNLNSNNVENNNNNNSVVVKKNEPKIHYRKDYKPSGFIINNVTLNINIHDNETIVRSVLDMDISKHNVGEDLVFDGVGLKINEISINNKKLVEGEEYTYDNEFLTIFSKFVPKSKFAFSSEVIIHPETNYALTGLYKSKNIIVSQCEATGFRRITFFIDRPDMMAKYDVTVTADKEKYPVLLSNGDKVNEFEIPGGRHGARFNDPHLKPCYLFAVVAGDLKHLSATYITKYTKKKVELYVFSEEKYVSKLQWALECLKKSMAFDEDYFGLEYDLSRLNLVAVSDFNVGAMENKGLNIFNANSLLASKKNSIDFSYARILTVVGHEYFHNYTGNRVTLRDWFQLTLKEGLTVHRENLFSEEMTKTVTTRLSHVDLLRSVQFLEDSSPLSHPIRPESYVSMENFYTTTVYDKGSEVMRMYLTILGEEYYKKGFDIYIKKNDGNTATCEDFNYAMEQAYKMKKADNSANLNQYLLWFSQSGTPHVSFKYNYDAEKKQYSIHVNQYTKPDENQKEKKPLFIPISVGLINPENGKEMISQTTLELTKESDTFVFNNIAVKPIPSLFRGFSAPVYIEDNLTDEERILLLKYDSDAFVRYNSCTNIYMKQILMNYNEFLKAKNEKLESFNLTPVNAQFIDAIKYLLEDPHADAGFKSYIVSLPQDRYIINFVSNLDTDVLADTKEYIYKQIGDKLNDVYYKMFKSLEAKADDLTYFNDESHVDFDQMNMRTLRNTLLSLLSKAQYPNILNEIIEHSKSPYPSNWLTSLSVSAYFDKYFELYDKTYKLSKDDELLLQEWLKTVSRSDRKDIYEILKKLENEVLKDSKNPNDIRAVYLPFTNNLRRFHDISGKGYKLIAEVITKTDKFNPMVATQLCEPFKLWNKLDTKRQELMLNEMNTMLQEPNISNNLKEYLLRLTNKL

[6] = target: T5, Long-chain-fatty-acid--AMP ligase FadD28 (Mycobacterium tuberculosis, UniProt P9WQ59); assay: Fluorescence polarization aasay to screen for inhibitors that compete for the binding of FadD28 to a bisubstrate Measured in Biochemical System Using Plate Reader - 2147-01_Inhibitor_Dose_CherryPick_Activity.; assay type: functional, Mycobacterium tuberculosis H37Rv
T5 sequence (P9WQ59 whole entry): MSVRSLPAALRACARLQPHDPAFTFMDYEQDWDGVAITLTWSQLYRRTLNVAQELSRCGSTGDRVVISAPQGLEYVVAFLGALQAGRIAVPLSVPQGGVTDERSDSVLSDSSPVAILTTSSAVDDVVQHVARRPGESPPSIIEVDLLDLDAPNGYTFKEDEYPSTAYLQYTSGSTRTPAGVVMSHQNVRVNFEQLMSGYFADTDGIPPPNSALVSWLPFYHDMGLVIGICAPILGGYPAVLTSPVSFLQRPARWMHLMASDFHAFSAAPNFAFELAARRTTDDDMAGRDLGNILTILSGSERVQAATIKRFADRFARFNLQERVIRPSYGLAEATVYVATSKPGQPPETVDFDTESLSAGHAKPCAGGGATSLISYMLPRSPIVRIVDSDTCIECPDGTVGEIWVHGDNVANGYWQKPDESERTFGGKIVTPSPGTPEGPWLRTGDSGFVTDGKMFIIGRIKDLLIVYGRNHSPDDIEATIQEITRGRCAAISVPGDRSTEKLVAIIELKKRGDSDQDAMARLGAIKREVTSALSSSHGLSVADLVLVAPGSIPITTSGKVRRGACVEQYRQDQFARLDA

[7] = target: T6, Streptokinase A (Streptococcus pyogenes serotype M1, UniProt P10520); assay: S. pyogenes streptokinase expression inhibitors, potency, dose response, plasminogen activation absorbance, OD405 (AID 1914); assay type: functional, Streptococcus pyogenes M1 GAS;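 also: secreted streptokinase activity via plasminogen activation per viability signal from cell pellet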
T6 sequence (P10520 whole entry): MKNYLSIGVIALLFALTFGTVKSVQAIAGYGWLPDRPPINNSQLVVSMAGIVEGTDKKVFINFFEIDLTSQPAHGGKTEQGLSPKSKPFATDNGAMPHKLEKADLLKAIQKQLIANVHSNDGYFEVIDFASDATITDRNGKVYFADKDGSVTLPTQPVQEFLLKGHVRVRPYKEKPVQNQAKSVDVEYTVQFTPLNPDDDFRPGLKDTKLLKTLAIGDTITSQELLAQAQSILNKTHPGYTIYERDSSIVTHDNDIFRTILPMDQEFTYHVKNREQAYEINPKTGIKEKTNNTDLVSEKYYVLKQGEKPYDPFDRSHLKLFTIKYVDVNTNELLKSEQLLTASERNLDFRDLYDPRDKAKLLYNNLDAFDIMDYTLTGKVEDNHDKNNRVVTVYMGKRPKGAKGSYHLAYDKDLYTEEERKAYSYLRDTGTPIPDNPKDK

[8] = target: T7, Short transient receptor potential channel 4 (Mus musculus, UniProt Q9QUQ5); assay: mouse TRPC4 channel inhibitors, dose response, cell-based, HEK293 TRPC4/mu-opioid, Fluo-4 calcium (AID 434942); assay type: functional;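 also: potency of inhibitors blocking the TRPC4 calcium response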
T7 sequence (Q9QUQ5 whole entry): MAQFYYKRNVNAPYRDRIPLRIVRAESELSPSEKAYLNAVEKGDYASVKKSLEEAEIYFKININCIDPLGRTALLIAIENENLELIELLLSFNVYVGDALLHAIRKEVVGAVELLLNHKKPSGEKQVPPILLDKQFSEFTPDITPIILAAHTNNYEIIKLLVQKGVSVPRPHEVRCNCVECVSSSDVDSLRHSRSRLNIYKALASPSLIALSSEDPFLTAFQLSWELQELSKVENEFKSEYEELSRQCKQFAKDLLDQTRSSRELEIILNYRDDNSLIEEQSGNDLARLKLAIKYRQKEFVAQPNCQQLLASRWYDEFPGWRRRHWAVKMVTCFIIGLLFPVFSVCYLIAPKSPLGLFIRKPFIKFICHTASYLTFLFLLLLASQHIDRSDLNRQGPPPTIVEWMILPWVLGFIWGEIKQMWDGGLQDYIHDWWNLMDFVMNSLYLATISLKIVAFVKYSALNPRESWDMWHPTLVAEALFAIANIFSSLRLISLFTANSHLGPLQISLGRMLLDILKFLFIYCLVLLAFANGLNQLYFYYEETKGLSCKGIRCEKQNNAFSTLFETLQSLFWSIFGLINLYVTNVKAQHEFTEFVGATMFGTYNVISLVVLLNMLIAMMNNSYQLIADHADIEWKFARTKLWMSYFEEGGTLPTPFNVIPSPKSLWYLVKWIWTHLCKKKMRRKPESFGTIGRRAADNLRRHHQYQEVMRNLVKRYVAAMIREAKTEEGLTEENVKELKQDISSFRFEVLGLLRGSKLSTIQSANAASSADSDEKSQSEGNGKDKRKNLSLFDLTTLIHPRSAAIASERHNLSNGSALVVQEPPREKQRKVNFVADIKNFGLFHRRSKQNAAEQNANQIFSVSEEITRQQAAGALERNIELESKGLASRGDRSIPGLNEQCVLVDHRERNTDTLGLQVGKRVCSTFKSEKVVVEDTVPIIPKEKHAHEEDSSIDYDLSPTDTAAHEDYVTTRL

[9] = tested on: Streptococcus; assay: Group A Streptococcus viability loss, dose response, counter-screen for streptokinase expression inhibitor project, luminescence, BacTiterGlo (AID 1915); assay type: functional, organism-based;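 also: potency for reduction of bacterial viability or growth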
[10] = tested on: Streptococcus sp. 'group A'; assay: growth inhibition of control SK(-) GAS strain, dose response, counter-screen for streptokinase expression inhibitor project, luminescence, kanamycin, BacTiterGlo, confirmation (AID 1900); assay type: functional, organism-based
[11] = target: Genome polyprotein (dengue virus type 2, UniProt P29990); assay: Dengue-2 NS5 methyltransferase inhibitors, primary screen, biochemical, confirmation dose response (AID 588689); assay type: functional
Chain of Genome polyprotein (P29990 2492-3391 limits assumed): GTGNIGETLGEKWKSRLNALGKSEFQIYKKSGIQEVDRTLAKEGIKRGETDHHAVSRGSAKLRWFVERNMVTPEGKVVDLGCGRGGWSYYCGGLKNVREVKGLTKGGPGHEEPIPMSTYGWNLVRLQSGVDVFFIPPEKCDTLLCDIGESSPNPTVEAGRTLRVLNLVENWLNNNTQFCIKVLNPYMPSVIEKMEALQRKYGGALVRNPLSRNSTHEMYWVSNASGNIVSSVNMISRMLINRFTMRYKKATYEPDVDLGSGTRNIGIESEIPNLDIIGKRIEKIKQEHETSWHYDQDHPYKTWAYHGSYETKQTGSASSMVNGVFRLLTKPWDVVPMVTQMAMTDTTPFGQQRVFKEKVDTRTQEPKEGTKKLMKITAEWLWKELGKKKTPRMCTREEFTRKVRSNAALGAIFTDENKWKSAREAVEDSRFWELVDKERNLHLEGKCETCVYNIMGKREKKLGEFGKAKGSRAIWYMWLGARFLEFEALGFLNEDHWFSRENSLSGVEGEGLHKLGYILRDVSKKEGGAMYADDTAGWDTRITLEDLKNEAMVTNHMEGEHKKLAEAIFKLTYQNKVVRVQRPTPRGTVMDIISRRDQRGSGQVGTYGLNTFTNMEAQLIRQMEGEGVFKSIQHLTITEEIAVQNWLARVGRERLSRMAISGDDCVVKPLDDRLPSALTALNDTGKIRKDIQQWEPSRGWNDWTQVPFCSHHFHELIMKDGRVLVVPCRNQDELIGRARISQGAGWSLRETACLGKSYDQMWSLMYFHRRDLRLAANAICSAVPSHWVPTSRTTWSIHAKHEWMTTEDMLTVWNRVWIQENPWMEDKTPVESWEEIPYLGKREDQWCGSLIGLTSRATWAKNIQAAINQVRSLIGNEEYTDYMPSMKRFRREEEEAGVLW

[12] = target: T8, Nuclear receptor subfamily 0 group B member 1 (Homo sapiens, UniProt P51843); assay type: functional, cell-based;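 also: HEK293T cells transfected with SF-1 and DAX-1 plus StAR promoter luciferase reporter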
T8 sequence (P51843 whole entry): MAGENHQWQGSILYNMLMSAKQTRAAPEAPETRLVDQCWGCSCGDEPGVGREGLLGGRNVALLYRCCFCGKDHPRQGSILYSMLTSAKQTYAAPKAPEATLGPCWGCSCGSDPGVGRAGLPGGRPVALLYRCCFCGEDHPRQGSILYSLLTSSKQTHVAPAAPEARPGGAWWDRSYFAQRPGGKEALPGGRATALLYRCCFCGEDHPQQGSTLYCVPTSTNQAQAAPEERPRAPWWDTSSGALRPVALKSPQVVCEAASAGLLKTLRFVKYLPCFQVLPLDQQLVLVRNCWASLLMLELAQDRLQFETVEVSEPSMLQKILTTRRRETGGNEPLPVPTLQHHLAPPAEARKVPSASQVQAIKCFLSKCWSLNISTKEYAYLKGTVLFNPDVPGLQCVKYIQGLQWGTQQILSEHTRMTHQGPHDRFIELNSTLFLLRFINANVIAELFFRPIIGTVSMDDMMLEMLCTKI

[13] = cells; assay type: functional, cell-based

With `CCCc1c(OCCCOc2ccc(OCC(=O)O)cc2)ccc(C(C)=O)c1O` the AC50 [1] was 2.54 µM (active) and the AC50 [2] was 31.6 µM (inconclusive).

In the case of `Nc1ccc2[nH]c(CCCCCCc3nc4cc(N)ccc4[nH]3)nc2c1`, the IC50 [3] was 20.8 µM (inactive) and the IC50 [4] was 5.49 µM (active).

For `Sc1nnc(-c2cc3c(s2)-c2ccccc2CC3)o1`, the IC50 [5] was 67.4 µM (active), the AC50 [6] was 24.9 µM (active) and the EC50 [7] was > 150 µM (not active). The EC50 [8] was 944 nM (active), the EC50 [9] was 23.3 µM (inconclusive) and the EC50 [10] was 11.5 µM (active).

For `O=C(CSc1nc2c(c(=O)n1-c1ccccc1)SCC2)N1CCOCC1`, the AC50 [1] was 2.62 µM (active).

For `Cc1ccc(S(=O)(=O)N2[C@@H](c3cccc(Cl)c3)C(C(=O)O)=CC[C@H]2c2cccc(Cl)c2)cc1`, the AC50 [6] was 24.9 µM (active) and the IC50 [11] was 48.3 µM (active).

With `C=C(c1ccc2[nH]c(NC(=O)OC)nc2c1)c1cccs1` the IC50 [12] was 2.72 µM (active) and the IC50 [13] was > 67.6 µM (inactive).

With `Cc1ccccc1S(=O)(=O)NCC[C@H]1CC[C@@H](NC(=O)Nc2cccc(F)c2)[C@H](CO)O1` the AC50 [1] was 11.3 µM (active).

With `CN1c2ccc(-c3cccc(C#N)c3)cc2[C@H]2[C@H](CCN2C(=O)CC2CC2)[C@H]1CO` the AC50 [1] was 3.56 µM (active).
